Molecular target: T1, HCV polymerase (NS5B570n-Con1) (Hepatitis C virus genotype 1b, UniProt Q9WMX2)
T1 construct: a 21 amino acid C-terminal deletion of full-length HCV polymerase; made in house; host or cells: E. coli BL21(DE3) pLysS, plasmid pET17b
Test: biochemical
Design: species or system HCV Con1 strain
Method: The enzymatic activity of HCV polymerase (NS5B570n-Con1) was measured as the incorporation of radiolabeled nucleotide monophosphates into acid insoluble RNA products. Unincorporated radiolabeled substrate was removed by filtration and scintillant was added to the washed and dried filter plate containing radiolabeled RNA product. The amount of RNA product generated by NS5B570n-Con1 at the end of the reaction was directly proportional to the amount of light emitted by the scintillant.
The HCV polymerase used in the enzymatic activity assay is a 21 amino acid C-terminal deletion of full-length HCV polymerase derived from HCV Con1 strain, genotype 1b (GenBank accession number AJ242654) (NS5B570n-Con1). The NS5B570n-Con1 was sub-cloned downstream to the T7 promoter of the plasmid expression construct pET17b and transformed into E. coli strain BL21(DE3) pLysS for protein expression. A single colony was used to start an innoculum for a 10 L culture in LB media supplemented with 100 μg/mL ampicillin at 37° C. Protein expression was induced by the addition of 0.25 mM isopropyl-β-D-thiogalactopyranoside (IPTG) when the optical density of the culture at […] was 0.8. Induction of protein expression was carried out at 30° C. for 16 h after which the cells were harvested by centrifugation. NS5B570n-Con1 was purified to homogeneity using a three-column purification protocol including subsequent column chromatography on Ni-NTA, SP-Sepharose HP and Superdex 75 resins.
Enzymatic reactions in the presence of cIRES RNA template (see section [0300]) contained 20 nM cIRES RNA, 20 nM NS5B570n-Con1 enzyme, 0.5 μCi of tritiated UTP (Perkin Elmer catalog no. TRK-412; specific activity: 30 to 60 Ci/mmol), 1 μM each ATP, CTP, and GTP, 40 mM Tris-HCl pH 8.0, 40 mM NaCl, 4 mM DTT (dithiothreitol), 4 mM MgCl2, 5 μl of compound serial diluted in DMSO, and nuclease-free water to a final reaction volume of 50 μl. Enzymatic reactions in the presence of 20 nM cIRES template, 20 nM NS5B570n-Con1 enzyme, 1 μCi of tritiated UTP (Perkin Elmer catalog no. TRK-412; specific activity: 30 to 60 Ci/mmol), 40 mM Tris-HCl pH 8.0, 40 mM NaCl, 4 mM DTT (dithiothreitol), 4 mM MgCl2, 5 μl of compound serial diluted in DMSO, and nuclease-free water to a final reaction volume of 50 μl. Reaction mixtures were assembled in 96-well filter plates (cat #MADVNOB, Millipore Co.) and incubated for 2 h at 30° C. Reactions were stopped by addition of 10% final (v/v) trichloroacetic acid and incubated for 40 min at 4° C. Reactions were filtered, washed with 8 reaction volumes of 10% (v/v) trichloroacetic acetic acid, 4 reaction volumes of 70% (v/v) ethanol, air dried, and 25 μl of scintillant (Microscint 20, Perkin-Elmer) was added to each reaction well.
Two RNA templates can be used to assay compounds described herein. The cIRES RNA template is 377 nucleotide long and consisting of a partial complementary sequence (36 nucleotides) of the core protein, followed by 341 nucleotide of the complementary sequence of the internal ribosome entry site. The poly A RNA template (GE Amersham catalog number 27-4110) was a homopolymeric RNA pre-annealed to a oligo(rU)16 primer at a molar ratio of 3-to-1 (primer-template). The cIRES template was used in the assay unless otherwise noted.
The amount of light emitted from the scintillant was converted to counts per minute (CPM) on a Topcount® plate reader (Perkin-Elmer, Energy Range: Low, Efficiency Mode Normal, Count Time: 1 min, Background Subtract: none, Cross talk reduction: Off).
Data was analyzed in Excel® (Microsoft®) and ActivityBase® (Idbs®). The reaction in the absence of enzyme was used to determine the background signal, which was subtracted from the enzymatic reactions. […] All data was expressed as a percentage of the positive control. The compound concentration at which the enzyme-catalyzed rate of RNA synthesis was reduced by 50% (IC50) was calculated by fitting

Going from `CNC(=O)c1coc2c(C(C)(C)C)cc(-c3ccc[nH]c3=O)cc12` [Compound I-22] to `CC(C)NC(=O)c1coc2c(C(C)(C)C)cc(-c3ccc[nH]c3=O)cc12` [Compound I-9], the IC50 rises from 770 nM to 1540 nM (2-fold). The first is the more potent here.

First: Cc1ccsc1C(=O)c1coc2c(C(C)(C)C)cc(-c3ccc[nH]c3=O)cc12 [Compound I-31]
Second: CC(C)(C)c1cc(-c2ccc[nH]c2=O)cc2c(C(=O)O)coc12 [Compound I-4, 7-tert-butyl-5-(2-oxo-1,2-dihydro-pyridin-3-yl)-benzofuran-3-carboxylic acid]
The IC50 of the first is 5.5-fold lower: 69 nM for the first, 381 nM for the second.

First: CCN(CCOC)C(=O)c1coc2c(C(C)(C)C)cc(-c3ccc[nH]c3=O)cc12 [Compound I-25]
Second: COCCN(CCOC)C(=O)c1coc2c(C(C)(C)C)cc(-c3ccc[nH]c3=O)cc12 [Compound I-19]
The IC50 of the first is 3.3-fold lower: 1330 nM for the first, 4350 nM for the second. The first is the more potent here.

Compared with `CC(C)(C)OC(=O)N[C@H]1CCCN(C(=O)c2coc3c(C(C)(C)C)cc(-c4ccc[nH]c4=O)cc23)C1` [Compound I-40], `CC(C)(C)OC(=O)N[C@@H]1CCCN(C(=O)c2coc3c(C(C)(C)C)cc(-c4ccc[nH]c4=O)cc23)C1` [Compound I-38] is 11-fold lower in IC50: 1410 nM for the first, 132 nM for the second. The second is the more potent here.

First: CC(C)(C)c1cc(-c2ccc[nH]c2=O)cc2c(-c3ccc(CNS(C)(=O)=O)nc3)coc12 [Compound I-93, N-{5-[7-tert-Butyl-5-(2-oxo-1,2-dihydro-pyridin-3-yl)-benzofuran-3-yl]-pyridin-2-ylmethyl}-methanesulfonamide]
Second: CC(C)(C)c1cc(-c2ccc[nH]c2=O)cc2c(C(=O)N3CCCC(F)(CNS(C)(=O)=O)C3)coc12 (stereo not shown) [Compound 124, N-{1-[7-tert-Butyl-5-(2-oxo-1,2-dihydro-pyridin-3-yl)-benzofuran-3-carbonyl]-3-fluoro-piperidin-3-ylmethyl}-methanesulfonamide]
The IC50 of the first is 2-fold higher: 12 nM for the first, 6 nM for the second.

Compared with `CC(C)(C)c1cc(-c2ccc[nH]c2=O)cc2c(C(=O)N3CCC[C@H]3CO)coc12` [Compound I-17], `CC(C)(C)c1cc(-c2ccc[nH]c2=O)cc2c(C(=O)N3CCCC(CO)C3)coc12` (stereo not shown) [Compound I-14] is 1.7-fold lower in IC50: 112 nM for the first, 66 nM for the second.

Compared with `CC1(C)CCCN(C(=O)c2coc3c(C(C)(C)C)cc(-c4ccc[nH]c4=O)cc23)C1` [Compound I-69], `CC(C)(C)c1cc(-c2ccc[nH]c2=O)cc2c(C(=O)N3CCCCC3)coc12` [Compound I-13] is 17-fold lower in IC50: 831 nM for the first, 48 nM for the second.

`COC(=O)C1COc2c1cc(-c1ccc[nH]c1=O)cc2C(C)(C)C` (stereo not shown) [Compound I-26, 7-tert-Butyl-5-(2-oxo-1,2-dihydro-pyridin-3-yl)-2,3-dihydro-benzo furan-3-carboxylic acid methyl ester] and `CC(C)(C)c1cc(-c2ccc[nH]c2=O)cc2c(C(=O)N3CCSC3)coc12` [Compound I-71] are within 1.5-fold of each other in IC50: 37 nM for the first, 50 nM for the second.

First: CC(C)(C)c1cc(-c2ccc[nH]c2=O)cc2c(C(=O)NC3(CO)CCCC3)coc12 [Compound I-18]
Second: CC(C)(C)c1cc(-c2ccc[nH]c2=O)cc2c(C(=O)N3CCC(CO)C3)coc12 (stereo not shown) [Compound I-70]
The IC50 of the first is 91-fold higher: 4800 nM for the first, 53 nM for the second. The second is the more potent here.

First: CN(C)[C@H]1CCN(C(=O)c2coc3c(C(C)(C)C)cc(-c4ccc[nH]c4=O)cc23)C1 [Compound I-53]
Second: CN(C)[C@@H]1CCN(C(=O)c2coc3c(C(C)(C)C)cc(-c4ccc[nH]c4=O)cc23)C1 [Compound I-67]
The IC50 of the first is 2-fold lower: 454 nM for the first, 889 nM for the second. The first is the more potent here.

Compared with `CC(C)(C)c1cc(-c2ccc[nH]c2=O)cc2c(C(=O)N3CCOC(CO)C3)coc12` (stereo not shown) [Compound I-15], `CC(C)(C)c1cc(-c2ccc[nH]c2=O)cc2c(C(=O)N3CCCC(C(N)=O)C3)coc12` (stereo not shown) [Compound I-61] is 4.9-fold lower in IC50: 325 nM for the first, 66 nM for the second. The second is the more potent here.

Compared with `CC(C)(C)c1cc(-c2ccc[nH]c2=O)cc2c(C(=O)N3CCC[C@H](NS(C)(=O)=O)C3)coc12` [Compound I-47], `CC(C)(C)OC(=O)NCC1CCN(C(=O)c2coc3c(C(C)(C)C)cc(-c4ccc[nH]c4=O)cc23)C1` (stereo not shown) [Compound I-45] is 2.3-fold lower in IC50: 172 nM for the first, 76 nM for the second. The second is the more potent here.

`CC(C)(C)OC(=O)NC1CCN(C(=O)c2coc3c(C(C)(C)C)cc(-c4ccc[nH]c4=O)cc23)CC1` [Compound I-39] showed an IC50 of 4370 nM.
